Legend:
[1] = molecular target: T1, serum albumin (Homo sapiens, UniProt P02768); test: EPR spectroscopy of spin probe binding to primary and secondary binding sites of serum albumin in patient serum
T1 construct: from tissue; host or cells: blood serum of patients (whole blood centrifugation)
Excerpt: At the condition of binding equilibrium in the mixture of sample aliquot, probe, and solvent, the binding efficiencies (BE1 and BE2) of specific (primary) and non-specific (secondary) hydrophobic binding sites of serum albumin can be calculated using the concentrations of the probe bound on the primary site of albumin (B1), on the secondary albumin site (B2) and unbound probe concentration (F), and solvent concentration (S) in the mixture. For example, can be calculated with either: 1/BE1=1/(Kb1·N1)=(Sc/S−1)·(F/B1)·P·(1−B1/(P·N1)) (2) 1/BE2=1/(Kb2·N2)=(Sc/S−1)·(F/B2)·P·(1−B2/(P·N2)) (3) where Sc=0.27 volume percent is the critical concentration of the solvent (as described above), P is the concentration of serum albumin in the sample, N1 is the number of specific or primary binding sites for the probe on the serum albumin molecule, N2 is the number of non-specific or secondary binding sites for the probe between the albumin on the serum albumin molecule. Generally, where the probe is a long chain fatty acid, N1=7 and N2 is from 6 to 8 for purified albumin. For native serum albumin of a healthy person N1 is from 4 to 7, and N2 is from 3 to 7. In native serum samples, typically the relative concentration of the spin probe bound on primary site, parameter B1/P, is about 0.5; and parameter B2/P is about 0.4. Therefore, the binding efficiencies BE1 and BE2 can be calculated (within about 10%) using the approximate formulas: 1/BE1=(Sc/S−1)·(F/B1)·P (2a) 1/BE2=(Sc/S−1)·(F/B2)·P (3a)
In Table 2, B1 and B2 are relative concentrations of the probe bound on primary and secondary sites of albumin, F is the relative concentration of unbound probe, B1/F and B2/F are parameters representing the binding efficiency of the primary and secondary binding sites of albumin, DP is discriminating parameter designed by square discriminant analysis using a set of probe binding parameters.
Blood serum was obtained by whole blood centrifugation. An aliquot of 50 μl of serum from each patient was used for each test. A spin probe of 2-(14-carboxytetradecyl)-2-ethyl-4,4-dimethyl-3-oxazolidinyloxy (purchased from Fluorochem Ltd., Derbyshire, UK) was mixed into the aliquot at a concentration of 1.64 mmol/l. A solvent, 14 μl of ethanol, was mixed into the aliquot. The molar ratio of the probe to serum albumin in the aliquot was 3.5, based on an albumin concentration in the serum of 4 g/dL. The mixture was then incubated for 10 min at 37° C. with continuous agitation in a standard shaker operated at about 5-8 Hz.
After incubation, the probe was placed into a glass capillary (e.g., Model No. RM-40, available from KABE LABORTECHNIK GmbH, Numbrecht-Elsenroth, Germany).
The EPR spectrum of the mixture was then measured, as described below. The above-described capillary was placed into the resonator of an EPR spectrometer for spectroscopic analysis. The spectroscopy parameters were as follows: microwave power 15 mW at frequency 9.52 GHz; magnetic field 0.34 T (3400 G) with scan range 12 mT (120 G); modulation amplitude 0.2 mT (2 G); data accumulation by three scans each with 4096 measured points and a sweep time 60 s. The capillary temperature was 37° C., and was controlled within +/−0.2° C.
The EPR spectrum was analyzed by computer using an EPR-spectrum simulation with nonlinear least-squares fits. The spectrum model included five components. The first two are the B and C components which represent portions of the probe that were bound differently on serum albumin. As shown here, the B and C components primarily differed by spectral parameters of A tensors (hyperfine splitting tensor): A∥(B)=30.02 Oe, A⊥(B)=9.02 Oe, A∥(C)=21.5 Oe, and A⊥(C)=13.35 Oe. Parameters of the g tensor used in the spectral calculations of these two components were: g∥(B)=1.9983, g⊥(B)=2.0019, g∥(C)=1.9990, and g⊥(C)=2.0013. The third D component represented the unbound spin probe residing free in the sample. The parameters of the D component were: A∥(D)=A⊥(D)=15.6 Oe, and g∥(D)=g⊥(D)=2.0008. […]

[2] = molecular target: albumin (Homo sapiens, UniProt P02768); settings: affinity of albumin for unlabeled stearic acid; cited from earlier work
Sequence of albumin (P02768 25-609, species assumed): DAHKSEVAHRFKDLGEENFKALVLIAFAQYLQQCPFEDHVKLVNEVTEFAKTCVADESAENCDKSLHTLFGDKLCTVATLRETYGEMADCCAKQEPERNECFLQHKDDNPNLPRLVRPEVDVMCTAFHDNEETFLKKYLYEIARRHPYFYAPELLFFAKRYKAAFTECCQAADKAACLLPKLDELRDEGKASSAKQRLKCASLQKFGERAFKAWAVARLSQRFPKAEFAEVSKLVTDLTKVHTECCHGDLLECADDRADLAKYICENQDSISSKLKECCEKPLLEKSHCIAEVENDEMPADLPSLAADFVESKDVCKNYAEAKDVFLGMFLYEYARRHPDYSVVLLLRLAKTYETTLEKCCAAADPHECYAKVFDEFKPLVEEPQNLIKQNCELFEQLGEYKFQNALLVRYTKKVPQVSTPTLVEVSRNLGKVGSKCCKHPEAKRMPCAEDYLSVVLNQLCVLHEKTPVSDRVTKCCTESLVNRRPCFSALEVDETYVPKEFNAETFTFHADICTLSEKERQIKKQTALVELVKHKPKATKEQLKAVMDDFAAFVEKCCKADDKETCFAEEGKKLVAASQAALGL

[3] = cancer-free persons, Mean, serum albumin 0.47 mmol, spin probe 1.64 mmol, ethanol 0.22 volume percent
[4] = patients with active malignancies, Max
[5] = patients with active malignancies, Mean
[6] = patients with active malignancies, Mean, serum albumin 0.47 mmol, spin probe 1.64 mmol, ethanol 0.22 volume percent
[7] = patients with active malignancies, Min

T1 sequence (P02768 25-609): as the sequence (P02768 25-609, species assumed) above

CCC1(CCCCCCCCCCCCCCC(=O)O)OCC(C)(C)N1[O] (stereo not shown) [16-doxyl stearic acid, 2-(14-carboxytetradecyl)-2-ethyl-4,4-dimethyl-3-oxazolidinyloxy]
B1, relative concentration of probe bound on primary sites of albumin ([1]; cancer-free persons, Max): 0.60 | B1/F, binding efficiency of primary binding sites of albumin ([1]; cancer-free persons, Max): 54.4 | B2, relative concentration of probe bound on secondary sites of albumin ([1]; cancer-free persons, Max): 0.45 | B2/F, binding efficiency of secondary binding sites of albumin ([1]; cancer-free persons, Max): 37.5 | DP, discriminating parameter ([1]; cancer-free persons, Max): −0.3 | F, relative concentration of unbound probe ([1]; cancer-free persons, Max): 0.044 | B1/F, binding efficiency of primary binding sites of albumin ([1]; cancer-free persons, Mean): 21.8 | B2/F, binding efficiency of secondary binding sites of albumin ([1]; cancer-free persons, Mean): 15.8 | DP, discriminating parameter ([1]; cancer-free persons, Mean): −3.3 | B1, relative concentration of probe bound on primary sites of albumin [1, 3]: 0.52 | B2, relative concentration of probe bound on secondary sites of albumin [1, 3]: 0.38 | F, relative concentration of unbound probe [1, 3]: 0.026 | B1, relative concentration of probe bound on primary sites of albumin ([1]; cancer-free persons, Min): 0.40 | B1/F, binding efficiency of primary binding sites of albumin ([1]; cancer-free persons, Min): 10.4 | B2, relative concentration of probe bound on secondary sites of albumin ([1]; cancer-free persons, Min): 0.34 | B2/F, binding efficiency of secondary binding sites of albumin ([1]; cancer-free persons, Min): 8.5 | DP, discriminating parameter ([1]; cancer-free persons, Min): −5.2 | F, relative concentration of unbound probe ([1]; cancer-free persons, Min): 0.010 | B1, relative concentration of probe bound on primary sites of albumin [1, 4]: 0.54 | B1/F, binding efficiency of primary binding sites of albumin [1, 4]: 11.4 | B2, relative concentration of probe bound on secondary sites of albumin [1, 4]: 0.38 | B2/F, binding efficiency of secondary binding sites of albumin [1, 4]: 6.5 | DP, discriminating parameter [1, 4]: 66.0 | F, relative concentration of unbound probe [1, 4]: 0.155 | B1/F, binding efficiency of primary binding sites of albumin [1, 5]: 5.9 | B2/F, binding efficiency of secondary binding sites of albumin [1, 5]: 4.5 | DP, discriminating parameter [1, 5]: 8.0 | B1, relative concentration of probe bound on primary sites of albumin [1, 6]: 0.44 | B2, relative concentration of probe bound on secondary sites of albumin [1, 6]: 0.33 | F, relative concentration of unbound probe [1, 6]: 0.079 | B1, relative concentration of probe bound on primary sites of albumin [1, 7]: 0.32 | B1/F, binding efficiency of primary binding sites of albumin [1, 7]: 2.3 | B2, relative concentration of probe bound on secondary sites of albumin [1, 7]: 0.23 | B2/F, binding efficiency of secondary binding sites of albumin [1, 7]: 1.6 | DP, discriminating parameter [1, 7]: 0.1 | F, relative concentration of unbound probe [1, 7]: 0.047

CCCCCCCCCCCCCCCCCC(=O)O [stearic acid]
binding constant [2]: about 10^9 mol^−1

From US9528992B2, “Methods and kits for detection of active malignancy” (priority 2012, dated 2016)
